Common to all, as to format: functional
The test system of one assay is Rattus norvegicus. Nature of the assay: Reduction in body weight gain in 24 hrs food-deprived Sprague-Dawley rat assessed as body weight gain level at 100 umol/kg, po followed by standard chow pellets feeding and measured 6 hrs post dose (reference value: 20.3g).
The target in assay [1] is T1, G-protein coupled receptor 6 (Homo sapiens, UniProt P46095). Nature of the assay: Inverse agonist activity at rat G-protein GSalpha fused GPR6 (unknown origin) expressed in HEK293 cell membranes assessed as effect on [35S]GTPgammaS binding pre-incubated for 5 to 10 mins followed by 60 mins incubation in presence of [35S]GTPgammaS by scintillation proximity assay. Background: GTPγS is a poorly hydrolysed GTP analogue; its binding reports G protein activation.
T1 sequence (P46095 whole entry, the tested form may be a part): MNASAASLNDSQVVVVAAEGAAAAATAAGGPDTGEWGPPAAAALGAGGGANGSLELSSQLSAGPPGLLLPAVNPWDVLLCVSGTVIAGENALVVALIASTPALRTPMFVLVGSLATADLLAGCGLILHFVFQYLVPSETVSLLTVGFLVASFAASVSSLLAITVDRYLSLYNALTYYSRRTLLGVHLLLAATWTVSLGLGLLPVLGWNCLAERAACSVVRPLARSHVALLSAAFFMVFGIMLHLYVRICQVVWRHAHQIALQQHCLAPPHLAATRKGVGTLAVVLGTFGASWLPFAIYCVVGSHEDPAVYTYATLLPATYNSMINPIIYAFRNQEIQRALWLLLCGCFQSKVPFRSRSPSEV

The target in assay [2] is T1, G-protein coupled receptor 6. Nature of the assay: Inverse agonist activity at rat G-protein GSalpha fused GPR6 (unknown origin) expressed in HEK293 cell membranes assessed as cAMP accumulation pre-incubated for 30 mins by microbeta plate reader based assay.

Structures are written as SMILES.

Among the data in ChEMBL document CHEMBL3714732, “Small molecule modulators of g protein-coupled receptor six” (2001) are Activity and IC50 values, retold here.

As a reminder, the IC50 is the concentration needed to halve the response being measured.

On to `O=C(/N=C1\SSC2=NCCN21)c1ccccc1`, for which the Activity in the assay on Rattus norvegicus is 6.18 g. Further, the half-inhibitory concentration (IC50) in assay [1] came to 440 nM; in assay [2], 170 nM.
